From PMC4201869 (Neuroendocrinology, 2014)
Several values for one entry are separate records, joined by “and”; a condition that tells them apart may be missing. Equal entries are not always repeated. Where no end group is shown, it is not given here.

Tests used:
GnRH neurons [1] = assay type: cell-based, rat
Kiss1R (Homo sapiens) = Kiss1R (Homo sapiens) (UniProt Q969F8); conditions: cited from earlier work
GnRH neurons [2] = assay: Spontaneous action potential firing, current clamp, slices from female rats; assay type: cell-based, rat; conditions: 7-10 min after addition
GnRH neurons [3] = conditions: adult male mouse; cited from earlier work
GnRH neurons [4] = conditions: mice and guinea pigs; cited from earlier work
GnRH neurons [5] = assay: Current-voltage; assay type: cell-based, rat; conditions: 100 nM Kp-10, compared to control; representative recording (Figure 5B)
GnRH neurons [6] = system: GnRH neurons

UniProt Q969F8, sequence (Q969F8 whole entry): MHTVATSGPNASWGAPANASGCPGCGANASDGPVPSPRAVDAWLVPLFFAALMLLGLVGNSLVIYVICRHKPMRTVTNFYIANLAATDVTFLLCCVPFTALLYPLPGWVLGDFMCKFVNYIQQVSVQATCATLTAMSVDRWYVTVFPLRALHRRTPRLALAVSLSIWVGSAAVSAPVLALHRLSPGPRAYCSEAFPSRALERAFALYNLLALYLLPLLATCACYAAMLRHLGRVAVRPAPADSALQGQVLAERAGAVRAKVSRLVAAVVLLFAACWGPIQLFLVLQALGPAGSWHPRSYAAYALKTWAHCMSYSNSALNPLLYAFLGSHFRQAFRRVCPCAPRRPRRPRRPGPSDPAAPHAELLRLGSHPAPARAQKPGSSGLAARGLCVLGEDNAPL
Kp-10, sequence (Q15726 whole entry, looked up): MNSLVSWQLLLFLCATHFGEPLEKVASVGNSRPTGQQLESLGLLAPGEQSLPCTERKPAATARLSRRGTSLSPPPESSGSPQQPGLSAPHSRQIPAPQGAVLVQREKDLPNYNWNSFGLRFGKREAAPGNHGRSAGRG

CART: Cocaine and Amphetamine Regulated Transcript (55–102, rat), American Peptide Company, excitatory neuropeptide (IPIYEKKYGQVPMCDAGEQCAVRKGARIGKLCDCPRGTSCNSFLLKCL; ends and bridges not checked; cysteine pairing not given here; UniProt P49192 82-129, looked up, fragment)
CART-induced firing and depolarization, in words (GnRH neurons [1]): persisted long after washout
GnRH neurons responding to CART (GnRH neurons [1]; 30 nM CART, 8 out of 12 cells from 5 animals, without TTX): 60–70%
membrane depolarization by CART alone under TTX (GnRH neurons [1]; 30 nM CART, TTX, n = 12 cells from 6 animals, mean ± SEM): 7.3 ± 0.6 mV and 7.3 ± 0.64 mV
membrane depolarization by CART (GnRH neurons [1]; 30 nM CART, without TTX, p<0.0001): 7.8 ± 0.1 mV

Kp-10 (from UniProt Q15726)
Kd (Kiss1R (Homo sapiens)): 2.7 nM

YNWNSFGLRY-NH2 [Kp-10, Mouse KiSS-1 (110–119)-NH2]
effect on action potential firing, in words (GnRH neurons [2]): stimulated the cell
GnRH neurons activated by kisspeptin (GnRH neurons [3]): about 90%
reversal potential of kisspeptin-induced currents (GnRH neurons [4]): −100 to −110 mV
reversal potential of kisspeptin-induced current (GnRH neurons [5]): −110 mV
depolarization by submaximal dose (GnRH neurons [6]; 10 nM Kp-10, TTX, mean ± SEM): 14.6 ± 2.3 mV
maximum depolarization (GnRH neurons [6]; 100 nM Kp-10, TTX, mean ± SEM): 20.2 ± 1.2 mV
depolarization, in words (GnRH neurons [6]; current clamp, TTX 1.0 μM, female rats): very prolonged, concentration-dependent depolarization of GnRH neurons that persisted long after washout of the agonist
cells responding to kisspeptin (GnRH neurons [6]; female rats, current clamp, TTX): Approximately 90%
